Measured values: PMC9142559 (2022)

Tests used:
[1] = test system: yjdF wt aptamer domain (Streptococcus ratti) (RNA, riboswitch) GGUAUAAAAACACAUUGCAGUUGGUAGUCUGCAAGCAUCAUCAGAUGUCAGUAACCUUCCCUCCAAGGUCGUCCCAUACC; assay: ligand fluorescence titration with RNA; conditions: 100 mM K+, 5 mM Mg2+; 20 mM Mops pH 7.0, 10 μM EDTA, 50 nM harmine; biphasic two-site Hill fit, site not stated
[2] = test system: circΔP3 (circ∆L3) (RNA, riboswitch) GAUGUCAGUAACCUUCCCUCCAAGGUCGUCCCAUACCGUUCGCGGUAUAAAAACACAUUGCAGUUGGUAGUCUGCAAGCAUC; assay: ligand fluorescence titration with RNA; conditions: 100 mM K+, 5 mM Mg2+; 20 mM Mops pH 7.0, 10 μM EDTA, 50 nM harmine; biphasic two-site Hill fit, site not stated; nearly identical to wt
[3] = test system: yjdF TLC (T-loop chimera, Streptococcus ratti) (RNA, riboswitch) GGUAUAAAAACACAUUGCAGUUGGUAGUCUGCAAGCAUCAUCAGAUGUCAGUAACCGGUUCGAAUCCGGUCGUCCCAUACC; assay: ligand fluorescence titration with RNA; conditions: 100 mM K+, 5 mM Mg2+; 20 mM Mops pH 7.0, 10 μM EDTA, 50 nM harmine; biphasic two-site Hill fit, site not stated; nearly identical to wt
[4] = test system: yjdF wt aptamer domain (Staphylococcus aureus) (RNA, riboswitch) UAGAAGUGUAAAAACACAAUUGGGUUGGUAGUCCCAAUGCAGUUUUAAAACUGUCAGUAACCUUCCUCCUCGGGUUGUCCGUCAUUUCUA; assay: ribosome filter binding (ligand-dependent); conditions: 100 mM NH4+, 5 mM Mg2+; 20 mM Hepes pH 7.0, 0.5 mM spermine; indirect
[5] = test system: yjdF wt aptamer domain (Enterococcus pallens) (RNA, riboswitch) CGAGCAUAAAAACACGAGGCGGUUGGUAGUCCGCCGCAUGAAAAUGUCAGUAGCCUUCCCUCCCGGGUCGUCCAUUGCUCG; assay: SEC (ligand-dependent folding); conditions: 100 mM K+, 5 mM Mg2+; 20 mM Mops pH 7.0, 10 μM EDTA; 60 nM chelerythrine in running buffer; indirect
[6] = test system: yjdF wt aptamer domain (Streptococcus ratti) (RNA, riboswitch) GGUAUAAAAACACAUUGCAGUUGGUAGUCUGCAAGCAUCAUCAGAUGUCAGUAACCUUCCCUCCAAGGUCGUCCCAUACC; assay: SHAPE probing (protection of A4, A5); conditions: 150 mM K+, 3 mM Mg2+; 20 mM MOPS-KOH pH 7.0, 10 μM EDTA, 2.5 μM ligand, 21 °C
[7] = test system: yjdF wt aptamer domain (Staphylococcus aureus) (RNA, riboswitch) UAGAAGUGUAAAAACACAAUUGGGUUGGUAGUCCCAAUGCAGUUUUAAAACUGUCAGUAACCUUCCUCCUCGGGUUGUCCGUCAUUUCUA; assay: SAXS; ribosome filter binding (ligand-dependent); conditions: 100 mM K+, 2.5 mM Mg2+ (SAXS); 20 mM Mops pH 7.0 (SAXS)
[8] = test system: yjdF wt aptamer domain (Streptococcus ratti) (RNA, riboswitch) GGUAUAAAAACACAUUGCAGUUGGUAGUCUGCAAGCAUCAUCAGAUGUCAGUAACCUUCCCUCCAAGGUCGUCCCAUACC; assay: ligand fluorescence emission (10-fold increase, 25 nm shift); conditions: 100 mM K+, 5 mM Mg2+; 20 mM Mops pH 7.0, 10 μM EDTA, 50 nM ligand, 20 °C
[9] = test system: yjdF wt aptamer domain (Streptococcus ratti) (RNA, riboswitch) GGUAUAAAAACACAUUGCAGUUGGUAGUCUGCAAGCAUCAUCAGAUGUCAGUAACCUUCCCUCCAAGGUCGUCCCAUACC; assay: ligand fluorescence emission (10-fold increase); conditions: 100 mM K+, 5 mM Mg2+; 20 mM Mops pH 7.0, 10 μM EDTA, 50 nM ligand, 20 °C

Row | SMILES | Kd [1] | binding [2] | binding [3] | binding [4] | binding [5] | binding [6] | binding [7] | binding [8] | binding [9]
1 | COc1ccc2c(c1)[nH]c1c(C)nccc12 | 230 ± 30 nM | yes | yes | yes |  |  |  |  | 
2 | COc1ccc2c(c[n+](C)c3c4cc5c(cc4ccc23)OCO5)c1OC |  |  |  |  | yes | yes | yes | yes | 
3 | C[n+]1cc2c3c(ccc2c2ccc4cc5c(cc4c21)OCO5)OCO3 |  |  |  |  |  | yes |  |  | yes
